Patent publication US20200360386A1, “Inhibitors of HSP90, PI3-Kinase, Proteasome, HDAC, and P97 Pathways for Selective Removal of Senescent Cells in the Treatment of Age Related Conditions” (Unity Biotechnology, Inc., priority 2017, published 2020)

Assays:
Assay type in all cases: in vivo, mouse
[1] = tested on: 3MR or INK-ATTAC mice exposed to cigarette smoke; experiment: Cigarette smoke induced COPD model, oxygen saturation by pulse oximeter; conditions: after two months of cigarette smoke exposure, compared with untreated controls; FIG. 6
Method: As a model for chronic obstructive pulmonary disease (COPD), mice were exposed to cigarette smoke. The effect of a senolytic agent on the mice exposed to smoke is assessed by senescent cell clearance, lung function, and histopathology.
The mice used in this study include the 3MR strain, described in US 2017/0027139 A1 and in Demaria et al., Dev Cell. 2014 Dec. 22; 31 (6): 722-733. The 3MR mouse has a transgene encoding thymidine kinase that converts the prodrug gancyclovir (GCV) to a compound that is lethal to cells. The enzyme in the transgene is placed under control of the p16 promoter, which causes it to be specifically expressed in senescent cells. Treatment of the mice with GCV eliminates senescent cells.
Other mice used in this study include the INK-ATTAC strain, described in US 2015/0296755 A1 and in Baker et al., Nature 2011 Nov. 2; 479 (7372):232-236. The INK-ATTAC mouse has a transgene encoding switchable caspase 8 under control of the p16 promoter. The caspase 8 can be activated by treating the mice with the switch compound AP20187, whereupon the caspase 8 directly induces apoptosis in senescent cells, eliminating them from the mouse.
To conduct the experiment, six-week-old 3MR (n=35) or INK-ATTAC (n=35) mice were chronically exposed to cigarette smoke generated from a Teague TE-10 system, an automatically-controlled cigarette smoking machine that produces a combination of side-stream and mainstream cigarette smoke in a chamber, which is transported to a collecting and mixing chamber where varying amounts of air is mixed with the smoke mixture. The COPD protocol was adapted from the COPD core facility at Johns Hopkins University (Rangasamy et al., 2004, J. Clin. Invest. 114:1248-1259; Yao et al., 2012, J. Clin. Invest. 122:2032-2045).
Mice received a total of 6 hours of cigarette smoke exposure per day, 5 days a week for 6 months. Each lighted cigarette (3R4F research cigarettes containing 10.9 mg of total particulate matter (TPM), 9.4 mg of tar, and 0.726 mg of nicotine, and 11.9 mg carbon monoxide per cigarette [University of Kentucky, Lexington, Ky.]) was puffed for 2 seconds and once every minute for a total of 8 puffs, with the flow rate of 1.05 L/min, to provide a standard puff of 35 cm^3. […] The smoke chamber atmosphere was monitored for total suspended particulates (80-120 mg/m3) and carbon monoxide (350 ppm). […]
After two months of cigarette smoke (CS) exposure, lung function was assessed by monitoring oxygen saturation using the MouseSTAT PhysioSuite™ pulse oximeter (Kent Scientific). […] Mice were monitored for 30 seconds and the average peripheral capillary oxygen saturation (SpO2) measurement over this duration was calculated.

[2] = tested on: C57BL/6J mice, osteoarthritis induced by ACL surgery; experiment: Osteoarthritis model: anterior cruciate ligament surgery, intra-articular treatment
Method: The model was implemented as follows. C57BL/6J mice underwent surgery to cut the anterior cruciate ligament of one rear limb to induce osteoarthritis in the joint of that limb. During week 3 and week 4 post-surgery, the mice were treated with 5.8 μg of Nutlin-3A (n=7) per operated knee by intra-articular injection, q.o.d. for 2 weeks. At the end of 4 weeks post-surgery, joints of the mice were monitored for presence of senescent cells, assessed for function, monitored for markers of inflammation, and underwent histological assessment.
Two control groups of mice were included in the studies performed: one group comprising C57BL/6J or 3MR mice that had undergone a sham surgery (n=3) (i.e., surgical procedures followed except for cutting the ACL) and intra-articular injections of vehicle parallel to the GCV (gancyclovir) treated group; and one group comprising C57BL/6J or 3MR mice that had undergone an ACL surgery and received intra-articular injections of vehicle (n=5) parallel to the GCV-treated group. RNA from the operated joints of mice from the Nutlin-3A treated mice was analyzed for expression of SASP factors (mmp3, IL-6) and senescence markers (p16). qRT-PCR was performed to detect mRNA levels.
Function of the limbs was assessed 4 weeks post-surgery by a weight bearing test to determine which leg the mice favored. The mice were allowed to acclimate to the chamber on at least three occasions prior to taking measurements. Mice were maneuvered inside the chamber to stand with one hind paw on each scale. The weight that was placed on each hind limb was measured over a three second period. At least three separate measurements were made for each animal at each time point. The results were expressed as the percentage of the weight placed on the operated limb versus the contralateral unoperated limb.

[3] = tested on: LDLR-/- mice fed a high fat diet; experiment: Atherosclerosis model: LDLR-/- mice on high fat diet, systemic treatment
Method: This example illustrates the testing of an MDM2 inhibitor in a mouse model for treatment of atherosclerosis. The test compounds are administered systemically rather than locally. The model is done in an LDLR−/− strain of mice, which are deficient in the receptor for low-density lipoprotein. The experiments described here can be adapted mutatis mutandis to test and develop other types of inhibitors for use in clinical therapy.
Two groups of LDLR−/− mice (10 weeks) are fed a high fat diet (HFD) (Harlan Teklad TD.88137) having 42% calories from fat, beginning at Week 0 and throughout the study. Two groups of LDLR−/− mice (10 weeks) are fed normal chow (−HFD). From weeks 0-2, one group of HFD mice and −HFD mice are treated with Nutlin-3A (25 mg/kg, intraperitoneally). One treatment cycle is 14 days treatment, 14 days off. Vehicle is administered to one group of HFD mice and one group of −HFD mice. At week 4 (timepoint 1), one group of mice are sacrificed and to assess presence of senescent cells in the plaques. For the some of the remaining mice, Nutlin-3A and vehicle administration is repeated from weeks 4-6. At week 8 (timepoint 2), the mice are sacrificed and to assess presence of senescent cells in the plaques. The remaining mice are treated with Nutlin-3A or vehicle from weeks 8-10. At week 12 (timepoint 3), the mice are sacrificed and to assess the level of plaque and the number of senescent cells in the plaques.
Plasma lipid levels were measured in LDLR−/− mice fed a HFD and treated with Nutlin-3A or vehicle at timepoint 1 as compared with mice fed a −HFD (n=3 per group). Plasma was collected mid-afternoon and analyzed for circulating lipids and lipoproteins.
At the end of timepoint 1, LDLR−/− mice fed a HFD and treated with Nutlin-3A or vehicle were sacrificed (n=3, all groups), and the aortic arches were dissected for RT-PCR analysis of SASP factors and senescent cell markers. Values were normalized to GAPDH and expressed as fold-change versus age-matched, vehicle-treated LDLR−/− mice on a normal diet.
At the end of timepoint 2, LDLR−/− mice fed a HFD and treated with Nutlin-3A or vehicle (n=3 for all groups) were sacrificed, and aortic arches were dissected for RT-PCR analysis of SASP factors and senescent cell markers. Values were normalized to GAPDH and expressed as fold-change versus age-matched, vehicle-treated LDLR−/− mice on a normal diet.
At the end of timepoint 3, LDLR−/− mice fed a HFD and treated with Nutlin-3A or vehicle (n=3 for all groups) were sacrificed, and aortas were dissected and stained with Sudan IV to detect the presence of lipid. Body composition of the mice was analyzed by MRI, and circulating blood cells were counted by Hemavet™.

SMILES: CC[C@H](C(=O)N1CCCC[C@H]1C(=O)O[C@H](CCc1ccc(OC)c(OC)c1)c1cccc(OCC(=O)NCC(CNC(=O)COc2cccc([C@@H](CCc3ccc(OC)c(OC)c3)OC(=O)[C@@H]3CCCCN3C(=O)[C@@H](CC)c3cc(OC)c(OC)c(OC)c3)c2)CN(C)C)c1)c1cc(OC)c(OC)c(OC)c1 [AP2018]
- SpO2 levels (peripheral capillary oxygen saturation) [1]: statistically significant increases

SMILES: Nc1nc(O)c2ncn(COC(CO)CO)c2n1 [ganciclovir]
- SpO2 levels (peripheral capillary oxygen saturation) [1]: statistically significant increases

SMILES: CC1(C)CCC(c2ccc(Cl)cc2)=C(CN2CCN(c3ccc(C(=O)NS(=O)(=O)c4ccc(N[C@H](CCN5CCOCC5)CSc5ccccc5)c(S(=O)(=O)C(F)(F)F)c4)cc3)CC2)C1 [ABT-263, Navitoclax]
- SpO2 levels (peripheral capillary oxygen saturation) [1]: statistically significant increases

SMILES: COc1ccc(C2=N[C@@H](c3ccc(Cl)cc3)[C@@H](c3ccc(Cl)cc3)N2C(=O)N2CCNC(=O)C2)c(OC(C)C)c1 [Nutlin-3A]
- expression of p16 in the joint tissue (qRT-PCR) ([2]; 5.8 μg per operated knee intra-articular q.o.d. for 2 weeks, 4 weeks post-surgery, FIG. 3A): reduced the expression back to below the level of the controls
- expression of IL-6 in the joint tissue (qRT-PCR) ([2]; 5.8 μg per operated knee intra-articular q.o.d. for 2 weeks, 4 weeks post-surgery, FIG. 3B): reduced the expression back to below the level of the controls
- expression of MMP13 in the joint tissue (qRT-PCR) ([2]; 5.8 μg per operated knee intra-articular q.o.d. for 2 weeks, 4 weeks post-surgery, FIG. 3C): reduced the expression back to below the level of the controls
- weight bearing test: favoring of the unoperated hind limb over the operated hind limb ([2]; 4 weeks post-surgery, FIG. 4A): abrogated this effect
- histopathology: destruction of the proteoglycan layer of the joint ([2]; FIGS. 4B-4D): completely abrogated this effect
- expression of SASP factors and senescent cell markers in aortic arch (RT-PCR): MMP3, MMP13, PAI1, p21, IGFBP2, IL-1A, IL-1B ([3]; 25 mg/kg intraperitoneally, timepoint 1 (week 4), after one treatment cycle): reduced expression of several SASP factors and senescent cell markers
- expression of SASP factors and senescent cell markers in aortic arch (RT-PCR) ([3]; 25 mg/kg intraperitoneally, timepoint 2 (week 8), multiple treatment cycles): reduced expression of most markers
- reduction of surface area covered by plaques in the descending aorta ([3]; 25 mg/kg intraperitoneally, timepoint 3 (week 12), Sudan IV staining, FIG. 7): about 45%
- platelet and lymphocyte counts versus vehicle treated mice ([3]; timepoint 3 (week 12), Hemavet): equivalent
- mass and body fat composition ([3]; timepoint 3 (week 12), MRI, mice fed the high fat diet): decreased mass and body fat composition
- SpO2 levels (peripheral capillary oxygen saturation) [1]: statistically significant increases
